This is an account of results in patent US20030232101A1, “Topical formulations of resorcinols and cannibinoids and methods of use” (Immugen Pharmaceuticals, Inc., priority 2002, published 2003).

Common to all, as to format: cell-based
Data set [1] has as its system HIV-1. As to the kind of experiment: HeLa CD4 LTR β-gal HIV-1 attachment assay (Experimental Example 1). Conditions: Human immunodeficiency virus 1, HeLa.
The test system of data set [2] is HeLa CD4 LTR β-gal cells. As to the kind of experiment: Compound toxicity in the attachment assay, sister plates, MTS dye reduction. As to the method: (§1) At assay termination the assay plates were stained with the soluble tetrazolium-based dye MTS (CellTiter96® Reagent Promega) to determine cell viability and quantify compound toxicity. MTS is metabolized by the mitochondria enzymes of metabolically active cells to a soluble formazan product, allowing the rapid quantitative analysis cell viability and compound cytotoxicity. […] At termination of the assay 20 μL of MTS reagent was added per well and incubated for 4 h at 37° C. Adhesive plate sealers were used in place of the lids, the sealed plate was inverted several times to mix the soluble formazan product and the plate was read spectrophotometrically at 490 nm with a Molecular Devices Vmax plate reader.
The attachment assay was performed with the HeLa CD4 LTR β-gal cells available from the AIDS Research and Reference Reagent Repository. […] HeLa CD4 LTR β-gal cells express cell surface CD4 and contain an LTR β-galactosidase reporter construct. Upon infection either the Tat protein incorporated into the virion or new Tat produced following virus integration and transcription trans-activates the LTR β-gal reporter, leading to expression of the β-galactosidase enzyme. HeLa CD4 LTR β-gal cells are routinely cultured with the required selection antibiotics and screened for mycoplasma contamination. Twenty-four h prior to initiation of the assay cells were trypsinized, counted and 1×10^4 cells placed in a 0.2 cm well in media without selection antibiotics. […] A known titer of virus was then added to the wells and the incubation continued for 1 h. At the end of the incubation the wells were washed 6 times with media and the culture continued for 48 h. At 48 h the wells were washed one time with PBS and β-galactosidase enzyme expression determined by chemiluminescence per manufacturers instructions (Tropix Gal-screen™, Tropix, Bedford, Mass.). Compound toxicity was monitored on sister plates using MTS dye reduction.
For orientation: Tetrazolium assays rely on reduction of a dye to a coloured formazan, in cell work by metabolically active cells.

Data set [3] relates to interaction of HIV gp 120 with CD4 (HeLa CD4 LTR β-gal / HL2/3 cell fusion). As to the kind of experiment: HeLa CD4 LTR β-gal/HL2/3 HIV-1 fusion assay (Experimental Example 1). Particulars: Human immunodeficiency virus 1, HeLa, 48 h, read-out: Antiviral Activity IC50. The text has this: This assay uses the HeLa CD4 LTR β-gal and HL2-3 cells available from the AIDS Research and Reference Reagent Repository. The fusion assay utilizes HeLa CD4 LTR β-gal cells with HL2/3 cells as a fusion partner via the interaction of HIV gp 120 with CD4. HL2/3 cells express HIV-1 Env on their cell surface and contain an HIV-1 Tat expression cassette. Upon syncytium formation and plasma membrane fusion, cytoplasmic mixing of the HL2/3 and HeLa CD4 LTR b-gal cell contents results in the transactivation of the LTR and β-Galactosidase expression is then directly related to […] cell membrane fusion. Thus, these two mechanistic assays can be used to confirm and identify a virus entry-based target of the compound. Additionally, because the attachment assay uses cell-free virus this assay can be used to show applicability to cell-free virus transmission.
(§2) Twenty-four h prior to initiation of the assay cells were trypsinized, counted and 5×10^3 cells placed in a 0.2 cm well in media without selection antibiotics. To initiate the fusion assay HeLa CD4 LTR β-gal (5×10^3 cells per 0.2 cm well) were incubated with compound for 1 h at 37° C. HL2/3 cells (5×10^3) were added to the 0.2 cm well and the incubation continued for 48 h. At 48 h the wells were washed 1 time with PBS and β-galactosidase enzyme expression determined by chemiluminescence per manufacturers instructions (Tropix Gal-screen™, Tropix, Bedford, Mass.). Compound toxicity was monitored on sister plates using MTS dye reduction.
In addition to assessing inhibition of attachment with HeLa CD4 LTR β-gal cells a virus fusion assay was perfoed using HeLa CD4 LTR β-gal and HL2/3 cells. No timed addition of compound was employed, but rather the assay was performed to verify the effects of the compounds on the HeLa CD4 LTR β-gal cells β-galactosidase expression.

Data set [4] concerns HeLa CD4 LTR β-gal cells. The data set is described as follows: Compound toxicity in the fusion assay, sister plates, MTS dye reduction. Particulars: no timed addition; 48 h. The method, then: as §1, §2
For data set [5], the system named is IIIB strain of HIV-1. The data set is described as follows: Virus attachment assay, HeLa CD4 LTR β-gal cells (Experimental Example 2). Conditions: Human immunodeficiency virus 1, IIIB, HeLa, read-out: Attachment Assay IC50. As to the method: (§3) This assay detects compounds that block virus attachment using HeLa CD4 LTR β-gal cells. HeLa CD4 LTR β-gal cells were cultured with selection antibiotics. Twenty-four h prior to initiation of the assay, the cells were trypsinized, counted and plated in a 0.2 cm well in media without selection antibiotics. At 24 h media is removed and compound in media placed on the cells and incubated for 15 min at 37° C. A known titer of the IIIB strain of HIV-1 was then added to the wells and the incubation continued for 1 to 2 h. At the end of the incubation the wells were washed 2 times with media and the culture continued for 40 to 48 h. At termination of the assay, media is removed and β-galactosidase enzyme expression determined by chemiluminescence per manufacturer's instructions (Tropix Gal-screen, Bedford Mass.). Compound toxicity is monitored on a sister plate by XTT or MTS dye reduction. All determinations are performed in triplicate with serial_Log10 dilution of the test materials.

Data set [6] concerns HeLa CD4 LTR β-gal cells. As to the kind of experiment: Compound toxicity in the attachment assay, sister plate, XTT or MTS (Example 2). The method, then:
as §3, with “materials. The virus adsorption interval of 1 to 2 h was sufficiently short that AZT, which requires phosphorylation to achieve its active tri-phosphate form (AZT-TTP), is not active in this assay.” for “materials.”

For data set [7], the system named is cell-to-cell fusion mediated by HIV-1 Env and CD4. As to the kind of experiment: Fusion assay, HeLa CD4 LTR β-gal and HL2/3 cells (Experimental Example 2). Conditions: Human immunodeficiency virus 1, HL2/3, read-out: Fusion Assay IC50. As to the method:
(§4) The fusion assay assesses the ability of compounds to block cell-to-cell fusion mediated by HIV-1 Env and CD4 expressed on separate cells. This assay is sensitive to inhibitors of both the gp 120/CD4 interaction and inhibitors of the X4 coreceptor. HeLa CD4 LTR β-gal cells were plated in microtiter wells and diluted compounds are added and allowed to incubate at 37° C. for 1 hr prior to the addition of HL2/3 cells. The incubation was then continued for 40 to 48 h, after which fusion is monitored by measurement of β-galactosidase enzyme expression, detectable by chemiluminescence (Tropix Gal-screen, Tropix, Bedford, Mass.). Compound toxicity is monitored on a sister plate using XTT or MTS dye reduction. All determinations are performed in triplicate with serial_Log10 dilution of the test materials.

The test system of data set [8] is HeLa CD4 LTR β-gal cells. As to the kind of experiment: Compound toxicity in the fusion assay, sister plate, XTT or MTS (Example 2). The method, then: as §4

For orientation: IC50 means the concentration needed to halve the response being measured.

Structures are written as SMILES. ≈ marks a conversion by molar mass, not a printed value. Bounds are passed on as bounds.

Turning to `COc1cc(-c2ccc(/N=N/c3ccc4c(S(=O)(=O)O)cc(S(=O)(=O)O)c(N)c4c3O)c(OC)c2)ccc1/N=N/c1ccc2c(S(=O)(=O)O)cc(S(=O)(=O)O)c(N)c2c1O` [CSB, Chicago Sky Blue, reference compound], the IC50 came out at 1.1 µg/mL (≈ 1.22 µM) in data set [1] (Experiment 1, pretreat 0 h); 1.71 µg/mL (≈ 1.89 µM) in data set [1] (Experiment 1, pretreat 4 h); 1.3 µg/mL (≈ 1.44 µM) in data set [1] (Experiment 1, pretreat 24 h); 0.17 µg/mL (≈ 0.188 µM) in data set [1] (Experiment 2, pretreat 0 h); 2.11 µg/mL (≈ 2.33 µM) in data set [1] (Experiment 2, pretreat 4 h); 4.7 µg/mL (≈ 5.19 µM) in data set [1] (Experiment 2, pretreat 24 h). Also, the IC50 is 1.75 µg/mL (≈ 1.93 µM) in data set [3], 0.63 µg/mL (≈ 0.696 µM) in data set [5] and 0.41 µg/mL (≈ 0.453 µM) in data set [7]. In addition, the TC50 is above 10 µg/mL in data set [2] (Experiment 1, pretreat 0 h); above 10 µg/mL in data set [2] (Experiment 1, pretreat 4 h); above 10 µg/mL in data set [2] (Experiment 1, pretreat 24 h); above 10 µg/mL in data set [2] (Experiment 2, pretreat 0 h); above 10 µg/mL in data set [2] (Experiment 2, pretreat 4 h); above 10 µg/mL in data set [2] (Experiment 2, pretreat 24 h). In data set [4], this compound gave a TC50 above 10 µg/mL. Moreover, in data set [6], the “Attachment Assay TC50” value was above 10 µg/mL. Moreover, the “Fusion Assay TC50” value in data set [8] was above 100 µg/mL.
